This assay concerns Eotaxin-3 (CCL26) release in human whole blood stimulated with IL-4. Put plainly: Human whole blood eotaxin-3 assay (IL-4 stimulated eotaxin-3 release). It counts as cell-based. The following applies: Homo sapiens, 48 h, human whole blood stimulated with recombinant human IL-4, 48 h, geometric mean; for EC50: inhibition of eotaxin-3 release, given for test compounds with >80% Emax. On the procedure: Human Whole Blood Eotaxin-3 Assay
This was a human whole blood assay using recombinant human Interleukin 4 to stimulate the blood and measuring the ability of the test compounds to inhibit eotaxin-3 release. The biological activities of the test compounds have been tested in human whole blood stimulated with IL-4 measuring Eotaxin-3 release. The test compounds were added to 384 well clear flat-bottom plate in a 4-fold serial dilution in triplicates using a liquid handler. Human whole blood stabilized in lithium-heparin tubes was added in a volume of 65 μL per well, resulting in a final DMSO concentration of 0.5%. The plate is incubated for 2 h at 37° C. under 5% CO2/95% air. Subsequently, 5 μL of recombinant human IL-4 (R&D Systems, cat #204-ILB) was added to the wells to a final concentration of […]. The plate was incubated for 48 h at 37° C. under 5% CO2/95% air. The plate was spun down for 10 minutes at 500×g and 20 μL supernatant was harvested and transferred to a 384 well v-bottom plate using a liquid handler and stored at −20° C. until further analysis. 10 μL supernatant was used to measure the level of Eotaxin-3 (CCL26) using Human Eotaxin-3 MSD kit from Mesocsale (Cat #K251UEK-4). The assay was performed according to the manufacture instructions.
The data from the human whole blood eotaxin-3 assay is shown below for Examples 1ab3, 1ab6, 1d23, and 1d4 (where the effect in % is plotted against the test concentration in M on a log-scale).

For 17 molecules, EC50 and Emax results are on record in patent US20260001893A1, “SMALL MOLECULE MODULATORS OF STAT6” (Gilead Sciences, Inc., priority 2024, published 2026).

Regarding `[2H]C([2H])([2H])N(C(=O)c1cc(C)c(C2=CCN([C@@H](C)c3cc4c(-n5ccc(N)cc5=O)ccnc4n3C)CC2)c(F)c1)C([2H])([2H])[2H]` [Example 1m93, (S)-4-(1-(1-(4-(4-amino-2-oxopyridin-1 (2H)-yl)-1-methyl-1H-pyrrolo[2,3-b]pyridin-2-yl)ethyl)-1,2,3,6-tetrahydropyridin-4-yl)-3-fluoro-5-methyl-N,N-bis(methyl-d3)benzamide], the EC50 stood at 3.76 nM. On to `[2H]C([2H])([2H])N(C(=O)c1ccc(C2CCN([C@@H](C)c3cc4c(-n5ccc(NC)cc5=O)ccnc4n3C)CC2)cc1)C([2H])([2H])[2H]` [Example 1m74, (S)—N,N-bis(methyl-d3)-4-(1-(1-(1-methyl-4-(4-(methylamino)-2-oxopyridin-1 (2H)-yl)-1H-pyrrolo[2,3-b]pyridin-2-yl)ethyl)piperidin-4-yl)benzamide], for which the half-maximal effective concentration (EC50) is 12.9 nM. For `[2H]C([2H])([2H])N(C(=O)c1cc(C)c(C2=CCN([C@@H](C)c3cc4c(-n5ccc(NC)cc5=O)ccnc4n3C)CC2)c(F)c1)C([2H])([2H])[2H]` [Example 1af83, (S)-3-fluoro-5-methyl-N,N-bis(methyl-d3)-4-(1-(1-(1-methyl-4-(4-(methylamino)-2-oxopyridin-1 (2H)-yl)-1H-pyrrolo[2,3-b]pyridin-2-yl)ethyl)-1,2,3,6-tetrahydropyridin-4-yl)benzamide], the EC50 amounted to 2.67 nM. Same read-out and setting: next, `CNc1ccn(-c2ccnc3c2cc([C@H](C)N2CC=C(c4c(C)cc(C(=O)N(C)C)cc4F)CC2)n3C)c(=O)n1` [Example 1m106, (S)-3-fluoro-N,N,5-trimethyl-4-(1-(1-(1-methyl-4-(4-(methylamino)-2-oxopyrimidin-1 (2H)-yl)-1H-pyrrolo[2,3-b]pyridin-2-yl)ethyl)-1,2,3,6-tetrahydropyridin-4-yl)benzamide]: 2.96 nM; `CNc1cc(=O)n(-c2ccnc3c2cc([C@H](C)N2CCC(c4c(C)cc(C(=O)N(C)C)cc4F)CC2)n3C)cc1F` [Example 1m131, (S)-3-fluoro-4-(1-(1-(4-(5-fluoro-4-(methylamino)-2-oxopyridin-1 (2H)-yl)-1-methyl-1H-pyrrolo[2,3-b]pyridin-2-yl)ethyl)piperidin-4-yl)-N,N,5-trimethylbenzamide]: 891 nM. Take `C[C@@H](c1cc2c(-n3ccc4c(c3=O)CCN4)ccnc2n1C)N1CCC(c2ccc(C(=O)N(C)C)cc2)CC1` [Example 1m82, (S)—N,N-dimethyl-4-(1-(1-(1-methyl-4-(4-oxo-1,2,3,4-tetrahydro-5H-pyrrolo[3,2-c]pyridin-5-yl)-1H-pyrrolo[2,3-b]pyridin-2-yl)ethyl)piperidin-4-yl)benzamide]: the 50% effective concentration (EC50) was determined as 18.4 nM. `CN(C)C(=O)c1cc(F)c(C2=CCN(Cc3cc4c(-n5ccc6c(c5=O)CCN6)ccnc4n3C)CC2)c(C2CC2)c1` (single isomer, unassigned) [Example 1m135, 3-cyclopropyl-5-fluoro-N,N-dimethyl-4-(1-((1-methyl-4-(4-oxo-1,2,3,4-tetrahydro-5H-pyrrolo[3,2-c]pyridin-5-yl)-1H-pyrrolo[2,3-b]pyridin-2-yl)methyl)-1,2,3,6-tetrahydropyridin-4-yl)benzamide]: the EC50 was found to be 12.1 nM.

For `CNc1ccn(-c2ccnc3c2cc(CN2CCC(c4c(F)cc(C(=O)N(C)C)cc4F)CC2)n3C)c(=O)c1` [Example 1m91, 3,5-difluoro-N,N-dimethyl-4-(1-((1-methyl-4-(4-(methylamino)-2-oxopyridin-1 (2H)-yl)-1H-pyrrolo[2,3-b]pyridin-2-yl)methyl)piperidin-4-yl)benzamide], the EC50 turned out to be 45.5 nM. Same read-out and setting: next, `CNc1ccn(-c2ccnc3c2cc(CN2CC=C(c4c(C)cc(C(=O)N(C)C)cc4F)CC2)n3C)c(=O)n1` [Example 1m88, 3-fluoro-N,N,5-trimethyl-4-(1-((1-methyl-4-(4-(methylamino)-2-oxopyrimidin-1 (2H)-yl)-1H-pyrrolo[2,3-b]pyridin-2-yl)methyl)-1,2,3,6-tetrahydropyridin-4-yl)benzamide]: 4.8 nM. On to `CNc1cc(=O)n(-c2ccnc3c2cc([C@H](C)N2CC=C(c4c(C)cc(C(=O)N(C)C)cc4F)CC2)n3C)cc1OC` [Example 1m137, (S)-3-fluoro-4-(1-(1-(4-(5-methoxy-4-(methylamino)-2-oxopyridin-1 (2H)-yl)-1-methyl-1H-pyrrolo[2,3-b]pyridin-2-yl)ethyl)-1,2,3,6-tetrahydropyridin-4-yl)-N,N,5-trimethylbenzamide], for which the concentration for a half-maximal effect (EC50) stood at 589 nM. The same measure, in the same setting: next, `[2H]C([2H])([2H])N(C(=O)c1cc(C)c(C2=CCN(Cc3cc4c(-n5ccc(N)nc5=O)ccnc4n3C)CC2)c(F)c1)C([2H])([2H])[2H]` [Example 1m78, 4-(1-((4-(4-amino-2-oxopyrimidin-1 (2H)-yl)-1-methyl-1H-pyrrolo[2,3-b]pyridin-2-yl)methyl)-1,2,3,6-tetrahydropyridin-4-yl)-3-fluoro-5-methyl-N,N-bis(methyl-d3)benzamide]: 26.6 nM; `Cc1cc(C(=O)N(C)C)cc(F)c1C1CCN([C@@H](C)c2cc3c(-n4ccc5c(c4=O)CCN5)ccnc3n2C)CC1` (single isomer, unassigned) [Example 1m121]: 16.4 nM.

`[2H]C([2H])([2H])N(C(=O)c1ccc(C2CCN([C@@H](C)c3cc4c(-n5ncc(N)cc5=O)ccnc4n3C)CC2)cc1)C([2H])([2H])[2H]` [Example 1af62, (S)-4-(1-(1-(4-(4-amino-6-oxopyridazin-1 (6H)-yl)-1-methyl-1H-pyrrolo[2,3-b]pyridin-2-yl)ethyl)piperidin-4-yl)-N,N-bis(methyl-d3)benzamide]: the Emax (given for test compounds with <80% Emax) is 20 to 30%. Regarding `CNc1ccn(-c2ccnc3c2cc(CN2CC=C(c4c(C)cc(C(=O)N(C)C)cc4Cl)CC2)n3C)c(=O)c1` [Example 1m57, 3-Chloro-N,N,5-trimethyl-4-(1-((1-methyl-4-(4-(methylamino)-2-oxopyridin-1 (2H)-yl)-1H-pyrrolo[2,3-b]pyridin-2-yl)methyl)-1,2,3,6-tetrahydropyridin-4-yl)benzamide], the EC50 is 27 nM. For `CNc1ccn(-c2ccnc3c2cc(CN2CC=C(c4c(C)cc(C(=O)N(C)C)cc4F)CC2)n3C)c(=O)c1C` [Example 1m104, 3-fluoro-N,N,5-trimethyl-4-(1-((1-methyl-4-(3-methyl-4-(methylamino)-2-oxopyridin-1 (2H)-yl)-1H-pyrrolo[2,3-b]pyridin-2-yl)methyl)-1,2,3,6-tetrahydropyridin-4-yl)benzamide], the EC50 turned out to be 156 nM. Take `Cc1cc(C(=O)N(C)C)cc(F)c1C1=CCN(Cc2cc3c(-n4cc(F)c(N)cc4=O)ccnc3n2C)CC1` [Example 1ad10, 4-(1-((4-(4-amino-5-fluoro-2-oxopyridin-1 (2H)-yl)-1-methyl-1H-pyrrolo[2,3-b]pyridin-2-yl)methyl)-1,2,3,6-tetrahydropyridin-4-yl)-3-fluoro-N,N,5-trimethylbenzamide]: the concentration for a half-maximal effect (EC50) is 12.2 nM.

Take `Cc1cc(C(=O)N(C)C)cc(F)c1C1=CCN(Cc2cc3c(-n4ccc5c(c4=O)CCN5)ccnc3n2C)CC1` [Example 1m101, 3-fluoro-N,N,5-trimethyl-4-(1-((1-methyl-4-(4-oxo-1,2,3,4-tetrahydro-5H-pyrrolo[3,2-c]pyridin-5-yl)-1H-pyrrolo[2,3-b]pyridin-2-yl)methyl)-1,2,3,6-tetrahydropyridin-4-yl)benzamide]: the EC50 came to 3.02 nM.

By EC50 is commonly meant the midpoint of the concentration-response curve. For orientation: Emax means the greatest response seen or fitted, relative to the assay's reference.
